Assay results from patent publication US6984646B2, “Imidazopyridinones as p38 map kinase inhibitors” (Bayer Healhcare AG, priority 2001, dated 2006).

Each compound was assayed against p38 map kinase (Homo sapiens, UniProt Q16539) (assay: P38 map kinase assay (SPA)). Settings: SPA [33-P] assay, biotinylated myelin basic protein substrate 2.5 μM, 10 μM ATP, 90 min 30° C.
Chain of p38 map kinase (Q16539 whole entry): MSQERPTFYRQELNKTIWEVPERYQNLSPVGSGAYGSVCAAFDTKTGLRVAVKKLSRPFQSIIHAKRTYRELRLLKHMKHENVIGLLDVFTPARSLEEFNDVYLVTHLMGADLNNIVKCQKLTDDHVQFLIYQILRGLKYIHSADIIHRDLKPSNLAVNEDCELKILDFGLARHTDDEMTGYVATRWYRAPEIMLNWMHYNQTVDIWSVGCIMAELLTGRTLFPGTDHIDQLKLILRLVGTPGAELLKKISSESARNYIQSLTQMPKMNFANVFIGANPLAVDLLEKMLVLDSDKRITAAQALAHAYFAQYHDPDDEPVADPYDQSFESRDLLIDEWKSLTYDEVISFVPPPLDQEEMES
Assay type: biochemical
Text: The assay makes use of the serine/threonine protein kinase SPA [33-P]+assay kit from Amersham Pharmacia Biotech. The assay is a homogeneous technique using SPA technology for the quantification of serine threonine kinase activity.
It is based on the p38 map kinase catalysed transfer of the γ-phosphate group of the [γ-^33P] ATP to the substrate, biotinylated myelin basic protein (MBP). The resulting [^33P]-labelled biotinylated product is trapped on a PVT SPA bead containing scintillant which has been surface coated with streptavidin.
The beads are allowed to settle to eliminate high background, and therefore only ^33P labelled product attached to the SPA bead is detected.
The assay is carried out in the presence and absence of test compounds to determine their effect on p38 map kinase activity.
A Test Protocol is as Follows:
• 1. SPA assay kit (Amersham). Components: • Assay buffer (store frozen) • Stop solution (store frozen) • Streptavidin coated SPA beads—reconstitute with 5 mls of PBS. (50 mg/ml). (Store in fridge) • 2. p38 map kinase enzyme SCRD (500 μg/ml)−aliquoted in 1.5 mls. • dilute 1:10 to 50 μg/ml • 1 plate: −110 μl (stock 500 μg/ml)+[…] PBS. • 3. Assay reagent: • for 1 plate: −504 μl Assay buffer (500 Mm MOPS pH7.2, 10 μM ATP, • 50 mM MgCl2, 25 μM biotinylated myelin basic protein (MBP)). • 2513.4 μl Water • 1.1 μl 33-p-ATP ([…]) (on activity date/adjust for activity date) • 4.534 μl×10^-2M ATP in water • 4. Stop solution: • for 1 plate: −265.92 μl streptavidin coated beads (50 mg/ml) • 1651.68 μl stop buffer (500 μM ATP, 50 mM EDTA 1% Triton X-100) • 7084.32 μl PBS. • 1. Add 10 μcompound Dilutions (5× final conc) Test wells. • 2. Add 10 μl 12.5% DMSO to control/blank wells. • 3. Add 10 μl enzyme (50 μg/ml)−final conc 500 ng/well • 4. Add 10 μPBS to blank wells. • 5. Add 30 μL of assay reagent to each well. (final conc 10 μM ATP, 2.5 μM substrate) • 6. Mix well on plate shaker • 7. Incubate 90 min (30° C.) • 8. Add 75 μl of stop solution to each well (final conc 55 μM ATP) • 9. Spin plate: −3 min/1600 rpm/20° C. (alternatively leave to settle overnight) • 10. Read in Microbeta, Protocol SPA paralux 3.
`O=C(c1ccccc1)c1ccc(=O)n2c1[nH]c1ccccc12` [Example 1, 4-Benzoylpyrido[1,2-a]benzimidazol-1(5H)-one] gave an IC50 of 518 nM.
Work on `Cc1[nH]c2c(C(=O)c3ccccc3F)ccc(=O)n2c1C` [Example 3, 8-(2-Fluorbenzoyl)-2,3-dimethylimidazo[1,2-a]pyridin-5(1H)-one] yielded an IC50 of 235 nM.
With `O=C(c1ccc(F)cc1F)c1ccc(=O)n2c3c([nH]c12)CCCC3` [Example 38, 4-(2,4-Difluorobenzoyl)-6,7,8,9-tetrahydropyrido[1,2-a]benzimidazol-1(51)-one] the IC50 was 96 nM.
With `O=C(c1ccccc1)c1ccc(=O)n2c3c([nH]c12)CCCC3` [Example 5, 4-Benzoyl-6,7,8,9-tetrahydropyrido[1,2-a]benzimidazol-1(5H)-one] the IC50 was 111 nM.
With `Cc1[nH]c2c(C(=O)c3ccc(F)cc3)ccc(=O)n2c1C` [Example 2, 8-(4-Fluorobenzoyl)-2,3-dimethylimidazo[1,2-a]pyridin-5(1H)-one] the IC50 was 329 nM.
